In the NIST ThermoML archive (doi:10.1007/s10765-007-0346-0):

How the values were obtained:
[1] = 101.33 kPa, Liquid, Capillary tube (Ostwald / Ubbelohde) method
[2] = xn = mol fraction of the nth substance listed; conditions: 101 kPa, Liquid, Capillary tube (Ostwald / Ubbelohde) method

COC(C)(C)C [2-methoxy-2-methylpropane]
[1]
Conditions | kinematic viscosity [m2/s]
283.15 K | 5.191e-07
298.15 K | 4.529e-07
313.15 K | 3.961e-07

COC(C)(C)C [2-methoxy-2-methylpropane] + CCC(C)CC
[2], x1 = 1
Conditions | kinematic viscosity [m2/s]
283.15 K | 5.191e-07
298.15 K | 4.529e-07
313.15 K | 3.961e-07

COC(C)(C)C [2-methoxy-2-methylpropane] + CCCCCC
kinematic viscosity [m2/s], [2]
Conditions | 283.15 K | 298.15 K | 313.15 K
x1 = 0.0479 | 5.097e-07 | 4.478e-07 | 4.017e-07
x1 = 0.0974 | 5.074e-07 | 4.465e-07 | 3.994e-07
x1 = 0.1983 | 5.034e-07 | 4.442e-07 | 3.96e-07
x1 = 0.2988 | 5.004e-07 | 4.427e-07 | 3.932e-07
x1 = 0.3979 | 4.99e-07 | 4.418e-07 | 3.91e-07
x1 = 0.4975 | 4.99e-07 | 4.413e-07 | 3.897e-07
x1 = 0.5974 | 4.996e-07 | 4.419e-07 | 3.895e-07
x1 = 0.6968 | 5.025e-07 | 4.431e-07 | 3.895e-07
x1 = 0.7911 | 5.059e-07 | 4.45e-07 | 3.913e-07
x1 = 0.8976 | 5.125e-07 | 4.484e-07 | 3.926e-07
x1 = 0.9486 | 5.147e-07 | 4.505e-07 | 3.94e-07

COC(C)(C)C [2-methoxy-2-methylpropane] + CCCCCCC
kinematic viscosity [m2/s], [2]
Conditions | 283.15 K | 298.15 K | 313.15 K
x1 = 0.0431 | 6.606e-07 | 5.683e-07 | 4.926e-07
x1 = 0.0987 | 6.512e-07 | 5.599e-07 | 4.862e-07
x1 = 0.1892 | 6.353e-07 | 5.461e-07 | 4.767e-07
x1 = 0.2958 | 6.168e-07 | 5.3e-07 | 4.658e-07
x1 = 0.3844 | 6.03e-07 | 5.169e-07 | 4.569e-07
x1 = 0.4986 | 5.845e-07 | 5.012e-07 | 4.454e-07
x1 = 0.6007 | 5.7e-07 | 4.881e-07 | 4.347e-07
x1 = 0.6999 | 5.567e-07 | 4.777e-07 | 4.246e-07
x1 = 0.7998 | 5.421e-07 | 4.68e-07 | 4.144e-07
x1 = 0.8997 | 5.298e-07 | 4.604e-07 | 4.047e-07
x1 = 0.9499 | 5.241e-07 | 4.566e-07 | 4.004e-07

CCC(C)CC [3-methylpentane]
[1]
Conditions | kinematic viscosity [m2/s]
283.15 K | 4.928e-07
298.15 K | 4.366e-07
313.15 K | 3.881e-07

CCC(C)CC [3-methylpentane] + CC(C)OC(C)C
kinematic viscosity [m2/s], [2]
Conditions | 283.15 K | 298.15 K | 313.15 K
x2 = 0 | 4.928e-07 | 4.366e-07 | 3.881e-07
x2 = 0.0498 | 4.914e-07 | 4.364e-07 | 3.872e-07
x2 = 0.1011 | 4.903e-07 | 4.355e-07 | 3.861e-07
x2 = 0.201 | 4.886e-07 | 4.348e-07 | 3.847e-07
x2 = 0.3018 | 4.877e-07 | 4.342e-07 | 3.837e-07
x2 = 0.4014 | 4.871e-07 | 4.339e-07 | 3.83e-07
x2 = 0.501 | 4.876e-07 | 4.338e-07 | 3.827e-07
x2 = 0.5993 | 4.883e-07 | 4.344e-07 | 3.831e-07
x2 = 0.6973 | 4.897e-07 | 4.352e-07 | 3.833e-07
x2 = 0.8014 | 4.912e-07 | 4.366e-07 | 3.842e-07
x2 = 0.8997 | 4.934e-07 | 4.377e-07 | 3.849e-07
x2 = 0.9501 | 4.947e-07 | 4.385e-07 | 3.854e-07

CCC(C)CC [3-methylpentane] + CCCCOCCCC
kinematic viscosity [m2/s], [2]
Conditions | 283.15 K | 298.15 K | 313.15 K
x2 = 0.0498 | 5.151e-07 | 4.505e-07 | 4.026e-07
x2 = 0.1011 | 5.383e-07 | 4.655e-07 | 4.176e-07
x2 = 0.1884 | 5.796e-07 | 4.975e-07 | 4.427e-07
x2 = 0.2989 | 6.32e-07 | 5.415e-07 | 4.712e-07
x2 = 0.4033 | 6.843e-07 | 5.846e-07 | 5.031e-07
x2 = 0.4999 | 7.344e-07 | 6.244e-07 | 5.374e-07
x2 = 0.5992 | 7.877e-07 | 6.669e-07 | 5.73e-07
x2 = 0.7016 | 8.46e-07 | 7.116e-07 | 6.088e-07
x2 = 0.799 | 9.03e-07 | 7.548e-07 | 6.442e-07
x2 = 0.9001 | 9.657e-07 | 8.021e-07 | 6.804e-07
x2 = 0.9496 | 9.979e-07 | 8.257e-07 | 6.992e-07
